Test results as given in patent publication EP1828393B1 (priority 2004, dated 2006).

Assay: Miscibility of glycolonitrile with water
Type: physicochemical
Settings: 25 °C
Description: As the reaction progresses, the α-hydroxynitrile dissolves into the aqueous phase, and eventually a single phase product mixture is obtained. The reaction may also be run by adding the α-hydroxynitrile to the reaction mixture at a rate approximately equal to the enzymatic hydrolysis reaction rate, thereby maintaining a single-phase aqueous reaction mixture, and avoiding the potential problem of substrate inhibition of the enzyme at high starting material concentrations.

N#CCO [Glycolonitrile, glycolonitrile]
miscibility with water: completely miscible with water in all proportions
